The results in this text go back to patent US20210047693A1, “METHODS OF TREATING EXTRACHROMOSOMAL DNA EXPRESSING CANCERS” (THE REGENTS OF THE UNIVERSITY OF CALIFORNIA, priority 2017, published 2021).

Structures are written as SMILES.

What all share (format): cell-based
For test [1], the system named is PC3 cells. Description: 2D colony formation assay with crystal violet staining. To be noted: PC3 cells compared with immortalized HEK293 cells. The method, then: FIGS. 12A-12C. […] FIG. 12A) Acute cell toxicity following 4 days treatment with 10 μM of indicated PARPi. Cell death measured by FACS analysis of Sytox Red staining in 2 normal cell types (astrocytes and HEK293), PC3 ecDNA-containing cells, and the paired GBM39 cells. FIG. 12B) 2D colony formation assay and crystal violet staining in immortalized HEK293 cells and PC3 cells after treatment with Olaparib or Rucaparib. FIG. 12C) Colony number quantification by Colony Area software plug-in for ImageJ from data in (FIG. 12B).

In test [2] the test system is isogenic paired COLO320 cells. As to the kind of experiment: 3D soft agar assay. The following applies: COLO320 isogenic pair (colon cancer cell line). The text has this:
(§1) FIGS. 13A-13B. […] FIG. 13A) 3D soft agar assay in isogenic paired GBM39 cells treated with Olaparib or Rucaparib. Quantification of colonies as measured by ColonyArea software (bottom). FIG. 13B) 3D soft agar assay in isogenic paired COLO320 cells (a colon cancer cell line) treated with Olaparib or Rucaparib. Quantification of colonies as measured by ColonyArea software (bottom).

In test [3] the test system is isogenic paired GBM39 cells. Description: 3D soft agar assay. To be noted: GBM39 isogenic pair.
Text: as §1

Test [4] relates to GBM cells. Description: Loss of EGFR-containing ecDNA / EGFR oncogene DNA (number of ecDNAs per metaphase).
Test [5] relates to GBM39 cells. Description: Exosomal export of oncogenes amplified on ecDNA (FISH probe and PCR analysis of purified exosomes). To be noted: exosomes purified from treated GBM39 cells.
The subject of test [6] is GBM cells. As to the kind of experiment: Glucose levels in cells.
For test [7], the system named is ecDNA. Description: Replication stress on ecDNA versus chromosomal DNA. To be noted: vehicle versus erlotinib; ecDNA vs chromosomal DNA.

On to `CNCc1ccc(-c2[nH]c3cc(F)cc4c3c2CCNC4=O)cc1` [Rucaparib, rucaparib], for which the “2D colony formation (colony number)” value in test [1] is “sensitive to PARP inhibition”. Moreover, the “3D soft agar colonies” value in test [2] and in test [3] was “sensitive to PARP inhibition” throughout.

For `C#Cc1cccc(Nc2ncnc3cc(OCCOC)c(OCCOC)cc23)c1` [erlotinib], the “loss of ecDNA containing amplified EGFRvIII (number of ecDNAs per metaphase)” value in test [4] was “causes the loss of ecDNA containing amplified EGFRvIII”. For the same molecule, the “cellular level of oncogenes amplified on ecDNA, via exosomal export” value in test [5] is “reduction of cellular level of oncogenes amplified on ecDNA”. For the same molecule, the “glucose levels in GBM cells” value in test [6] is given as “lowers glucose levels in GBM cells”. In test [7], the “replication stress on ecDNA (frequency of pRPA(533) positive metaphase)” value is on record as “specifically causes replication stress on ecDNA, but not on chromosomal DNA”.

On to `O=C(c1cc(Cc2n[nH]c(=O)c3ccccc23)ccc1F)N1CCN(C(=O)C2CC2)CC1` [Olaparib, olaparib], for which the “2D colony formation (colony number)” value in test [1] is reported as “sensitive to PARP inhibition”. In addition, the “3D soft agar colonies” value in test [2] and in test [3] was “sensitive to PARP inhibition” throughout.
